Experimental data reported in patent EP3045469A1, “POLYMYXIN DERIVATIVE AND USES THEREOF” (priority 2015, dated 2016).
Values joined by “and” are separate entries in the source; they are usually repeats but may differ in a detail not shown here. Identical values can stand only once.

Experiments:
[1] = 7-day intravenous toxicity (nephrotoxicity) study in cynomolgus monkeys; conditions: IV infusion TID; for animals euthanized due to severe nephrotoxic effects: seven days, 3 animals per group
Experimental: In vivo toxicity and toxicokinetic studies were performed by using cynomolgus monkeys. The laboratory that performed the animal studies is accredited by the Association for Assessment and Accreditation of Laboratory Animal Care (AAALAC), has an Animal Welfare Assurance issued by the Office of Laboratory Animal Welfare (OLAW), is registered with the United States Department of Agriculture (USDA), and has an Institutional Animal Care and Use Committee (IACUC) responsible for compliance with applicable laws and regulations concerning the humane care and use of laboratory animals.
Naive female cynomolgus monkeys were acclimatized to study room for 28 days during which each animal was implanted with a permanent indwelling femoral catheter to permit continuous intravenous infusions. The animals were allowed surgical recovery period of at least 2 weeks before initiating dosing.
Polymyxin B sulfate was from Sigma-Aldrich (catalogue number P0972, lot number BCBF8382V). On each day of use, appropriate quantities of NAB739, NAB815 or polymyxin B were weighed and dissolved in appropriate volumes of sterile saline to prepare a stock solution for each test article and positive control. A correction factor was used in the stock solution preparation to account for both the purity and sulfate content in each test article. Accordingly, the dose (such as 36 mg/kg/d) refers to the dose of the pure peptide as its free base form, not as its sulfate salt.
The doses were the following: polymyxin B 18 mg/kg/d (Group 1), polymyxin B 24 mg/kg/d (Group 2), NAB739 24 mg/kg/d (Group 3), NAB739 36 mg/kg/d (Group 4), NAB815 24 mg/kg/d (Group 5), NAB815 36 mg/kg/d (Group 6). Three animals were included in each study groups.
(§1) For seven days, the animals were dosed by intravenous (IV) infusion three times daily (TID) at a dose volume of 10 mL/kg for 1 hour (± 10 minutes), 8 ± 0.5 hours apart. The day of initial dose administration was designated study Day 1, with subsequent days consecutively numbered. Days prior to the initial dose administration were consecutively numbered with the final day of acclimation referenced as Day -1.
(§2) The following parameters were evaluated at designed intervals: clinical observations, body weights, clinical pathology (hematology, coagulation, serum chemistry, urinalysis including urine sediments and urine chemistry), toxi-cokinetics (plasma and urine) and anatomic pathology (kidney). In cases of animals sacrificed on an unscheduled basis, samples were taken on the day of the sacrifice.
On the day of necropsy, animals were sedated with ketamine, weighed, and anesthetized with an intravenous injection of a commercial pentobarbital and phenytoin solution, followed by exsanguinations.
At necropsy, gross observations and organ weights were recorded, and specific tissues were collected. Histopathology was conducted on sections of kidney stained with hematoxylin and eosin (H&E).
The figures also show Urine N-acetyl-β-D-glucosaminidase/urine creatinine ratio (U-NAG/Crea; Fig. 3) and Urine Gamma Glutamyltransferase/urine creatinine ratio (U-GGT/Crea; Fig. 4), both urine biomarkers for kidney injury, in those animals. S-Crea and U-Crea were measured by using an Olympus Analyzer (OA) and the modified Jaffe method, S-BUN by using OA and urease/L-glutamate dehydrogenase. U-NAG was measured by using OA/enzymatic, and U-GGT by using OA and glutamyl-carboxy-p-nitroanilide IFCC.
The presence of the following nephropathological parameters was recorded in each animal: tubular basophilia (regeneration), tubular degeneration/necrosis, infiltration (by mononuclear and/or mixed inflammatory cells), tubular dilatation, and tubular casts.

[2] = Toxicokinetics (plasma and urine levels by LC-MS/MS) in cynomolgus monkeys
Experimental: as §1, §2
Plasma and urine concentrations for toxicokinetic (TK) studies were determined by using liquid chromatograph interfaced with a mass spectrometer after precipitation of proteins. A sample (100 µL) was mixed with internal standard solution in water:formic acid (99:1 v/v; […]). Then, 600µL of 100:1 acetonitrile:formic acid was added. The plates were centrifuged at 3200 rpm for 5 minutes. Using a Tomtec Quadra96, a 450 µL aliquot was transferred to a new 96-well plate and dried under nitrogen at 40°C. Then, 200 µL of water:methanol:formic acid (85:15:1 1 v/v) was added and the plate sealed for LC-MS/MS injection. LC-MS system consisted of Waters Acquity liquid chromatograph interfaced with a Thermo Scientific TSQ Quantitative triple quadrupole MS with ionization in the positive ion mode. Each sample (20 µL) was injected onto a Waters Acquity BEH Shield RP18 column (2.1 x 50 mm; 1.7 µm) equilibrated at 50°C. Mobile Phase A was 85:15:1 v/v water:methanol:formic acid. Mobile Phase B was 50:50:1 v/v acetonitrile:methanol:formic acid.
Peak area ratios from the calibration standard responses were regressed using a (1/concentration^2) linear fit for polymyxin B using colistin as the internal standard. For NAB739 and NAB815, peak areas from the calibration standard responses were regressed using a (1/concentration^2) quadratic fit (without the use of an internal standard).
Toxicokinetic analysis was performed by using WinNonlin Phoenix version 6.3 software (Pharsight, Cary, NC). For plasma TK, noncompartmental IV infusion model was used.
The data is from the cynomolgus monkey studies described in the Example 3, where the peptides were administered as a 1-hour intravenous infusion thrice a day. The plasma and urine levels of the peptides were determined as in Example 3.

[3] = the six animals at 18 mg/kg/d and 24 mg/kg/d

Polymyxin B
animals euthanized due to severe nephrotoxic effects ([1]; 18 mg/kg/d): all the three animals | animals euthanized due to severe nephrotoxic effects ([1]; 24 mg/kg/d): Two animals | S-BUN, S-Crea and U-GGT/Crea [1, 3]: remarkably increased | U-NAG/Crea [1, 3]: remarkably increased in five of the animals | concentration in the urine ([2]; after infusion at 8 mg/kg, highest found either in the 0-4 h or 4-8 h sample, given for each animal, 8 mg/kg): 7 µg/mL and 9 µg/mL and 15 µg/mL | 0-8 h recovery in urine ([2]; after the infusion of 8 mg/kg, percentages given for each animal, 8 mg/kg): 1 % of the dose and 2 % of the dose (2×) | Area under the concentration-time from time 0 h to 8 h (AUCs 0-8h) ([2]; plasma, after the infusion of 8 mg/kg, day 1): 112 (SD=5) hr*µg/mL
